Entries after “also recorded” stand apart in the source; their conditions may differ.
Experiments:
[1] = system: SMT-F tumor; test: In vivo antitumor (photodynamic) activity, SMT-F tumors in DBA/2 mice; set-up: species or system DBA/2 Ha-DD mouse
Protocol: Tumor Response and Foot Response Experiments: For tumor response experiments (see Table 3), a 1mm^3 piece of SMT-F tumor from a donor DBA/2 Ha-DD mouse was implanted subcutaneously with a trocar into the axilla of a 5-7 week old female DBA/2 Ha-DD mouse. When the tumor had grown to about 4mm diameter, mice were injected intravenously (i.v.) with photosensitizers at various doses. At various time after injection, mice were restrained in Plexiglas® holders and each tumor was illuminated with 135 J/cm^2 light from a dye laser 171 (spectra physics). The light dose rate was 75 mW/cm^2 as measured with a PTR Optics […]. The percentage of short term control (non-palpable tumors) was recorded daily. For our study 6 mice/group were used.
In vivo Biological Activity: The in vivo photosensitizing ability of all the sensitizers was compared with that of commercial BPD in DBA/2 mice bearing subcutaneously implanted SMT-F tumors, a method previously described by Dougherty et al. All photosensitizers, including commercial BPD (mixture of 21 and 22) were first dissolved in a minimum quantity of Tween 80 and then diluted with 0.9% saline, to a final concentration of 1% Tween 80.
It can be seen from Table 3 that commercial BPD was quite effective at a dose of 5.0 mg/kg, 3 h post i.v. injection (4 out of six mice were tumor free at day 30). […] However, replacement of the vinyl with a 1-hexyloxyethyl group induced a remarkable difference in photosensitizing activity.

[2] = system: hind foot; test: Foot-response experiments (skin phototoxicity); type: in vivo, DBA/2 HaDD mice
Protocol: Foot-response experiments were carried out on 5-7 week old female DBA/2 HaDD mice. Sensitizers were injected i.v. at the following doses: Photofrin® in normal saline, BPD (industrial preparation) in 1% Tween 80; n-hexyl ether derivative 40 in 1% Tween 80. After 1 or 5 days the mice were restrained without anesthesia in aluminum holders and one hind foot of each mouse was illuminated with light from a dye laser 171 (Spectra Physics). Illumination conditions (i.e., light dose, dose rate and wavelength) were as follows: Photofrin®, 5 mg/kg; BPD 5.0 mg/k (3.0 h), n-hexyl ether derivative 40 5.0 mg/kg (24 h) and 1.0 mg/kg (3 h). Light dose was measured with a Coherent 210 power meter and wavelength was measured with a PTR Optics monochromator. Sensitizer does for the foot response experiments corresponded to the lowest dose required to give maximum tumor control measured 7 days after treatment (see Table 3). Foot response was graded daily according to the scale in the legend to FIG. 13. Animals were euthanized immediately after peak foot scores were obtained.

[3] = Electronic absorption, red absorption maximum; type: physicochemical; conditions: maximum red absorption peak, Table 3
Protocol: M.p.s were measured on a Thomas/Bristoline microscopic hot stage apparatus and were uncorrected. Silica gel 60 (70-230 and 230-400 mesh, Merck) or neutral alumina (Merck; usually Brockmann Grade III, i. e., deactivated with 6% water) were used for column chromatography. Preparative thin layer chromatography was carried out on 20×20 cm glass plates coated with Merck G 254 silica gel (1 mm thick). Analytical thin layer chromatography (TLC) was performed using merck 60 F254 silica gel (precoated sheets, 0.2 mm thick). Reactions were monitored by TLC and spectrophotometry and were carried out under nitrogen and in the dark. ^1 HNMR spectra were obtained in deuteriochloroform solution at 300 MHz using a General Electric QE300 spectrometer; chemical shifts are expressed in ppm relative to chloroform (7.258 ppm). Elemental analyses were performed at the Midwest Microlab, Ltd., Indiana, USA. Unless stated otherwise, electronic absorption spectra were measured in dichloromethane solution using a Hewlett-Packard 8450A spectrophotometer. Mass spectra were obtained at the Mass Spectrometry Facility, University of California, San Francisco and at the Department of Biophysics, Roswell Park Cancer Institute, Buffalo.

[4] = system: SMT-F tumor; test: In vivo antitumor (photodynamic) activity, SMT-F tumors in DBA/2 mice; set-up: species or system DBA/2 Ha-DD mouse; remark: listed apart in the source

Compound: CCCCCCOC(C)C1=C(C)c2cc3[nH]c(cc4nc(cc5[nH]c(cc1n2)c(C)c5CCC(=O)OC)C(CCC(=O)OC)=C4C)C1(C)C3=CC=C(C(=O)OC)C1C(=O)OC (mixture of isomers) [Compound 40, 8-(1-Hexyloxyethyl)benzoporphyrin Derivative]
- Tumor response (nonpalpable tumor), 1-2 d ([1]; 1.0 mg/kg i.v., light 3 h after injection, day 1-2): 6/6
- Tumor response (nonpalpable tumor), 7 d ([1]; 1.0 mg/kg i.v., light 3 h after injection, day 7): 3/6
- Tumor response (nonpalpable tumor), 30 d ([1]; 1.0 mg/kg i.v., light 3 h after injection, day 30): 3/6
- antitumor / photosensitizing activity ([1]; 1.0 mg/kg, light 3 h post i.v. injection where stated): active
- in vivo activity versus vinyl or ring B isomer ([1]; 1.0 mg/kg, trans isomers compared): more active than the ring "B" modified isomer 45
- in vivo photosensitizing efficacy / antitumor activity compared with BPD ([1]; mice, compared with BPD (mixture of 21 and 22)): significantly more active than the industrially prepared benzoporphyrin derivative; also recorded: better photosensitizing efficacy than benzoporphyrin derivative monocarboxylic acid; also recorded: better anti-tumor activity than BPD-MA
- skin phototoxicity compared with Photofrin and BPD ([2]; 1.0 mg/kg, 3 h post injection): reduced skin phototoxicity
- skin phototoxicity compared with Photofrin and BPD ([2]; 5.0 mg/kg, 24 h post injection): reduced skin phototoxicity
- skin phototoxicity ([2]; dose not given): reduced residual skin phototoxicity compared with Photofrin; also recorded: reduced skin phototoxicity compared with BPD-MA and Photofrin
- absorption maximum wavelength [3]: 676 nm
- Tumor response (nonpalpable tumor), 1-2 d ([4]; 5.0 mg/kg i.v., light 24 h after injection, day 1-2): 6/6
- Tumor response (nonpalpable tumor), 7 d ([4]; 5.0 mg/kg i.v., light 24 h after injection, day 7): 6/6
- Tumor response (nonpalpable tumor), 30 d ([4]; 5.0 mg/kg i.v., light 24 h after injection, day 30): 5/6
- tumorcidal / photosensitizing activity ([4]; 5.0 mg/kg, light 24 h post i.v. injection): excellent tumorcidal activity
